According to US11160797B2, “Pyridinone derivatives and their use as selective ALK-2 inhibitors” (NOVARTIS AG, priority 2017, dated 2021):
Like-named read-outs stand apart in the source and are kept apart here.

How the values were obtained:
[1] = biological target: T1, wild-type ALK2 (aa172-499) (Homo sapiens (Human), UniProt Q04771); assay: Caliper biochemical peptide phosphorylation assay, ALK2
ALK5 (aa162-503) = ALK5 (aa162-503) (Homo sapiens (Human), UniProt P36897); assay: Caliper biochemical peptide phosphorylation assay, ALK5; settings: 15 uM ATP
Sequence of ALK5 (aa162-503) (P36897 162-503): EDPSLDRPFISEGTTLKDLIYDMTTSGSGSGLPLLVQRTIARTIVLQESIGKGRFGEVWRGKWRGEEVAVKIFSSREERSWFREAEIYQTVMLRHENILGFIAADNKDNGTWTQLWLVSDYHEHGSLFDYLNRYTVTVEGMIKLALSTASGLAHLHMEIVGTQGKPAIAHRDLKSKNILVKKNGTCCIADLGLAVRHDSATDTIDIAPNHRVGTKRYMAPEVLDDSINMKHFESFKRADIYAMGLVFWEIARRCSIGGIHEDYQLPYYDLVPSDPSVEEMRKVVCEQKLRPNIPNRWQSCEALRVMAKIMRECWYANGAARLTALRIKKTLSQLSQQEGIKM
Source text: For all biochemical assays, human recombinant proteins were expressed in and purified from baculo virus transfected insect cells. The constructs comprised the GS-domain and kinase domain of wild-type ALK2 (aa172-499), ALK2 FOP mutant (aa172-499 R206H), ALK3 (aa198-525), ALK5 (aa162-503) and ALK6 (aa168-495).
A kinase selectivity panel which measures substrate peptide phosphorylation was set-up for wild-type ALK2 (aa172-499), ALK2 FOP mutant (aa172-499 R206H), ALK1 (aa166-493), ALK5 (aa162-503) and ALK6 (aa168-495). The technology used for the described assay is based on the separation and quantification of substrate and product in an electrical field. In the course of the kinase reaction the peptide substrate is phosphorylated by a kinase. […] Due to this difference in charge the phosphorylated und unphosphorylated peptides migrate with different velocities in an electrical field.
In the applied method, this separation takes place inside a chip that contains a complex capillary system for simultaneous analysis of 12 samples (“LabChip EZ Reader 12-sipper chip”, Caliper Technologies Corp., Mountain View, USA). In order to allow the detection and quantification of the peptides in the capillary system, the peptides carry a fluorescent label (fluorescein). With this label the peptides can be quantified by fluorescence intensity through the instruments laser and detection system (LC3000, Caliper Life Sciences).
The assays were performed in 384-well, low volume microtiter assay plates in a final reaction volume of 9 ul. Dose-response curves were generated by incubating 10 nM of each kinase together with 2 uM of the fluorescently labeled substrate peptide 5-Fluo-Ahx-[…]-T-[…]-amid (10 mM stock solution in DMSO) in 50 mM Hepes pH 7.5, 0.02% Tween 20, 0.02% BSA, 1 mM DTT, 10 uM Na3VO4, 10 mM ß-Glycerolphosphate, 1 mM MgCl2, 12 mM MnCl2 (ALK1 and ALK6 7 mM) and 15 uM ATP for 60 min at 30° C. in the presence or absence of compound diluted in DMSO.
Kinase reactions were terminated by adding 15 ul STOP buffer (100 mM HEPES pH 7.5, 5% DMSO, 0.1% Caliper coating reagent, 10 mM EDTA, and 0.015% Brij35.
Plates with terminated kinase reactions were transferred to the Caliper LC3000 workstation (Caliper Technologies Corp., Mountain View, USA) for reading. The relative amount of phosphorylated peptide r, was calculated using the heights of the substrate peak, s, and the product peak, p:r=p/(p+s).
IC50 values for a given antagonist correspond to the compound concentration needed to inhibit half of the maximum signal of the kinase reaction.

[2] = biological target: T1, wild-type ALK2 (aa172-499); assay: ADPGlo biochemical autophosphorylation assay, ALK2; settings: 15 uM ATP
ALK1 (aa166-493) = ALK1 (aa166-493) (Homo sapiens (Human), UniProt P37023); assay: Caliper biochemical peptide phosphorylation assay, ALK1; settings: 15 uM ATP
Sequence of ALK1 (aa166-493) (P37023 166-493): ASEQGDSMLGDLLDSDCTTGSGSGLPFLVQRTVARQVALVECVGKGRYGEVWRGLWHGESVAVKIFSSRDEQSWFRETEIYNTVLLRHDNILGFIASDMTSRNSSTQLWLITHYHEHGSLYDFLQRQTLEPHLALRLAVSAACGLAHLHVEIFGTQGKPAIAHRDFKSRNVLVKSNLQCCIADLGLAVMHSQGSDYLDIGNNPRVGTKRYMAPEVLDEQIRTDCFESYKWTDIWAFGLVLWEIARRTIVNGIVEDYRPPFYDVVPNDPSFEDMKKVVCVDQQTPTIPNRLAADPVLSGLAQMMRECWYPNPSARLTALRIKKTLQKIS

[3] = biological target: ALK2 FOP mutant (aa172-499 R206H) (Homo sapiens (Human), UniProt Q04771, R206H); assay: Caliper biochemical peptide phosphorylation assay, ALK2 FOP
Sequence of ALK2 FOP mutant (aa172-499 R206H) (Q04771 172-499 R206H): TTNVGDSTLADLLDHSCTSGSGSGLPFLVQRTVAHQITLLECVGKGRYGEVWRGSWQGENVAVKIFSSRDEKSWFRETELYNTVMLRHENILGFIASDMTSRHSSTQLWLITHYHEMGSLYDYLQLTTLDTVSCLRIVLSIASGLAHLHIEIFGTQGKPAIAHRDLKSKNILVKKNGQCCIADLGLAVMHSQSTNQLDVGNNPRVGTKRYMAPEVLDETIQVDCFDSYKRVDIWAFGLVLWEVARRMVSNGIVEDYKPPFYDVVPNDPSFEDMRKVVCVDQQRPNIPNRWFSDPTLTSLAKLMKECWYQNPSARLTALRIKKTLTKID

[4] = system: HuH7 cells, BMP response element (BRE) luciferase reporter, BMP6 stimulated; assay: BMP signaling reporter gene assay; format: cell-based; settings: Homo sapiens, Huh-7; BMP6 100 ng/ml; read-out: MSD HuH7 cell BMP reporter IC50
[5] = Caliper peptide phosphorylation, 15 uM ATP, read-out: ALK2 IC50
[6] = Caliper peptide phosphorylation, R206H, 15 uM ATP, read-out: ALK2 FOP EPK IC50

T1 sequence (Q04771 172-499): as the sequence (Q04771 172-499 R206H) above, with H35R counted along it

IC50 ([1]; read-out: IC50 in the ALK2 assay) | IC50 ([3]; read-out: IC50 in the ALK2-FOP assay) | SMILES | IC50 [1, 5] | IC50 (ALK5 (aa162-503)) | IC50 [2] | IC50 (ALK1 (aa166-493)) | IC50 [3, 6] | IC50 [4]
 |  | COCCN1C(=O)Cc2cc(-c3cncc(-c4ccc(=O)n(C(C)C)c4)c3)cnc21 [Example 27, 5-(1′-Isopropyl-6′-oxo-1′,6′-dihydro-[3,3′-bipyridin]-5-yl)-1-(2-methoxyethyl)-1H-pyrrolo[2,3-b]pyridin-2(3H)-one] | 880 nM | > 10000 nM | 1700 nM | > 10000 nM | 1200 nM | 
 |  | CC(C)n1cc(-c2cncc(-c3ccc4c(c3)N(C)C(=O)C4)c2)ccc1=O [Example 26, 6-(1′-Isopropyl-6′-oxo-1′,6′-dihydro-[3,3′-bipyridin]-5-yl)-1-methylindolin-2-one] | 470 nM | > 10000 nM | 710 nM |  | 590 nM | 
 |  | CCN1C(=O)Cc2cc(-c3cncc(-c4ccc(=O)n(C(C)C)c4)c3)ccc21 [Example 20, 1-Ethyl-5-(1′-isopropyl-6′-oxo-1′,6′-dihydro-[3,3′-bipyridin]-5-yl)indolin-2-one] | 90 nM | 2500 nM | 110 nM |  | 90 nM | 140 nM
 |  | Cc1cc(-c2cncc(-c3ccc4c(c3)CC(=O)N4C)c2)cn(C(C)C)c1=O [Example 3, 5-(5-(1-Isopropyl-5-methyl-6-oxo-1,6-dihydropyridin-3-yl)pyridin-3-yl)-1-methylindolin-2-one] | 90 nM | 660 nM | 97 nM |  | 70 nM | 50 nM
 |  | CCn1cc(-c2cncc(-c3ccc4c(c3)CC(=O)N4C)c2)ccc1=O [Example 9, 5-(1′-ethyl-6′-oxo-1′,6′-dihydro-[3,3′-bipyridin]-5-yl)-1-methylindolin-2-one] | 460 nM | > 10000 nM | 490 nM |  | 400 nM | 540 nM
> 1000 nM | > 1000 nM | CC(C)n1cc(-c2cncc(-c3cnc4c(c3)C(C)(C)C(=O)N4C)c2)ccc1=O [5-(1′-isopropyl-6′-oxo-1′,6′-dihydro-[3,3′-bipyridin]-5-yl)-1,3,3-trimethyl-1H-pyrrolo[2,3-b]pyridin-2(3H)-one] |  |  |  |  |  | 
 |  | CC(C)Cn1cc(-c2cncc(-c3ccc4c(c3)CC(=O)N4C)c2)ccc1=O [Example 14, 5-(1′-isobutyl-6′-oxo-1′,6′-dihydro-[3,3′-bipyridin]-5-yl)-1-methylindolin-2-one] | 480 nM | 9100 nM | 740 nM | 4600 nM | 510 nM | 680 nM
 |  | COCCN1C(=O)Cc2cc(-c3cncc(-c4ccc(=O)n(C(C)C)c4)c3)ccc21 [Example 29, 5-(1′-Isopropyl-6′-oxo-1′,6′-dihydro-[3,3′-bipyridin]-5-yl)-1-(2-methoxyethyl)indolin-2-one] | 130 nM | 6800 nM | 140 nM | 1600 nM | 150 nM | 
 |  | CC(C)n1cc(-c2cncc(-c3cc4c(cc3F)N(C)C(=O)C4)c2)ccc1=O [Example 31] | 100 nM | 5300 nM | 120 nM | 770 nM | 90 nM | 130 nM
 |  | COCCCN1C(=O)Cc2cc(-c3cncc(-c4ccc(=O)n(C(C)C)c4)c3)ccc21 [Example 30, 5-(1′-isopropyl-6′-oxo-1′,6′-dihydro-[3,3′-bipyridin]-5-yl)-1-(3-methoxypropyl)indolin-2-one] |  | 6000 nM |  | 1500 nM |  | 
 |  | CC(C)n1cc(-c2cncc(-c3ccc4c(c3)NC(=O)C4(C)C)c2)ccc1=O [Example 32, 6-(1′-isopropyl-6′-oxo-1′,6′-dihydro-[3,3′-bipyridin]-5-yl)-3,3-dimethylindolin-2-one] |  | 690 nM |  | 280 nM |  | 
 |  | CN1C(=O)Cc2cc(-c3cncc(-c4ccc(=O)n(C5CC5)c4)c3)ccc21 [Example 10, 5-(1′-cyclopropyl-6′-oxo-1′,6′-dihydro-[3,3′-bipyridin]-5-yl)-1-methylindolin-2-one] | 410 nM | > 10000 nM | 710 nM | 2900 nM | 390 nM | 730 nM
 |  | CCC(C)n1cc(-c2cncc(-c3ccc4c(c3)CC(=O)N4C)c2)ccc1=O (centres unmarked) [Example 7, 5-(1′-(sec-butyl)-6′-oxo-1′,6′-dihydro-[3,3′-bipyridin]-5-yl)-1-methylindolin-2-one] | 190 nM | 4400 nM | 230 nM | 1200 nM | 170 nM | 
 |  | Cc1cc(-c2cncc(-c3ccc(=O)n(C(C)C)c3)c2)cc2c1N(C)C(=O)C2 [Example 35, 5-(1′-isopropyl-6′-oxo-1′,6′-dihydro-[3,3′-bipyridin]-5-yl)-1,7-dimethylindolin-2-one] | 100 nM | 5700 nM | 110 nM | 630 nM | 91 nM | 140 nM
 |  | CC(C)n1cc(-c2cncc(-c3ccc4c(c3)CCCC(=O)N4C)c2)ccc1=O [Example 39, 7-(1′-isopropyl-6′-oxo-1′,6′-dihydro-[3,3′-bipyridin]-5-yl)-1-methyl-4,5-dihydro-1H-benzo[b]azepin-2(3H)-one] | 70 nM | 1400 nM | 89 nM | 350 nM | 60 nM | 110 nM
 |  | CC(C)n1cc(-c2cncc(-c3ccc4c(c3)CC(=O)N4)c2)ccc1=O [Example 34, 5-(5-(1-Isopropyl-6-oxo-1,6-dihydropyridin-3-yl)pyridin-3-yl)indolin-2-one] | 180 nM | 3400 nM | 300 nM | 1100 nM | 170 nM | 190 nM
 |  | CC(C)n1cc(-c2cncc(-c3ccc4c(c3)CCC(=O)N4C)c2)ccc1=O [Example 28, 6-(1′-Isopropyl-6′-oxo-1′,6′-dihydro-[3,3′-bipyridin]-5-yl)-1-methyl-3,4-dihydroquinolin-2(1H)-one] | 30 nM | 580 nM | 31 nM |  | 20 nM | 
 |  | CC(C)n1cc(-c2cncc(-c3ccc4c(c3)CC(=O)N4C)c2F)ccc1=O [Example 52, 5-(4-fluoro-1′-isopropyl-6′-oxo-1′,6′-dihydro-[3,3′-bipyridin]-5-yl)-1-methylindolin-2-one] | 380 nM | > 10000 nM | 690 nM | 3600 nM | 380 nM | 
 |  | CC1C(=O)Nc2cc(-c3cncc(-c4ccc(=O)n(C(C)C)c4)c3)ccc21 (centres unmarked) [Example 33, 6-(1′-isopropyl-6′-oxo-1′,6′-dihydro-[3,3′-bipyridin]-5-yl)-3-methylindolin-2-one] | 170 nM | 2700 nM | 180 nM | 760 nM | 150 nM | 330 nM
 |  | CCC(CC)n1cc(-c2cncc(-c3ccc4c(c3)CC(=O)N4C)c2)ccc1=O [Example 4, 1-methyl-5-(6′-oxo-1′-(pentan-3-yl)-1′,6′-dihydro-[3,3′-bipyridin]-5-yl)indolin-2-one] | 600 nM | > 10000 nM | 1300 nM |  | 650 nM | 
 |  | CCc1cc(-c2cncc(-c3ccc4c(c3)CC(=O)N4C)c2)cn(C(C)C)c1=O [Example 5, 5-(5′-Ethyl-1′-isopropyl-6′-oxo-1′,6′-dihydro-[3,3′-bipyridin]-5-yl)-1-methylindolin-2-one] | 160 nM | 720 nM | 140 nM | 900 nM | 130 nM | 60 nM
